Laboratory results from the C3SDB collision cross section collection.

Settings: instrument: DT, single field, calibrated with Agilent tune mix (Agilent)

| collision cross section (N2) ([M+H]+) [Å²] | collision cross section (N2) ([M-H]-) [Å²] | collision cross section (N2) ([M+Na]+) [Å²] | SMILES | further results |
| --- | --- | --- | --- | --- |
| 149.5 | 142.07 |  | CC(C)C[C@H](NC(=O)CN)C(=O)O [Glycyl-L-leucine] |  |
|  | 129.77 | 139 | OCC1(O)OC[C@@H](O)[C@H](O)[C@@H]1O (stereo partly drawn) [D-Tagatose] |  |
|  | 171.18 |  | Nc1ncnc2c1ncn2[C@@H]1O[C@H](CO)[C@@H](OP(=O)(O)O)[C@H]1O [Adenosine 3'-monophosphate] |  |
|  | 196.32 |  | CCCCCCCC/C=C\CCCCCCCCCCCCCC(=O)O [Nervonic acid] | collision cross section (N2) ([M+H-H2O]+): 196.8 Å² |
|  | 162.72 |  | CCCCCCCCCCCCCCC(=O)O [Pentadecanoic Acid] |  |
|  | 133.2 |  | O=C(O)CCCCCCC(=O)O [Suberic acid] |  |
| 140.3 |  |  | N[C@@H](CCS(=O)(=O)O)C(=O)O [L-homocysteic acid] | collision cross section (N2) ([M+Na-2H]-): 132.56 Å² |
|  | 149.85 | 161.9 | O=C(O)/C=C/CCCCCCCCC(=O)O [Traumatic Acid] |  |
|  | 134.53 |  | O=C(O)/C=C/c1c[nH]c2ccccc12 [Indole-3-acrylic acid] |  |
|  | 144.64 |  | CCCCCC(=O)NCC(=O)O [Hexanoylglycine] |  |
|  | 118.65 |  | CC(C)C(O)C(=O)O (stereo not given) [2-Hydroxy-3-methylbutyric acid] |  |
|  | 203.42 |  | CC1=C(/C=C/C(C)=C/C=C/C(C)=C/C(=O)O)C(C)(C)CCC1 [All-trans-retinoic acid] |  |
| 153.5 | 148.31 |  | C[C@@H](O)[C@@H](O)c1cnc2[nH]c(N)nc(=O)c2n1 [Biopterin] |  |
| 184.5 |  |  | C[S+](CC[C@H](N)C(=O)[O-])C[C@H]1O[C@@H](n2cnc3c(N)ncnc32)[C@H](O)[C@@H]1O (stereo not given in full) [S-Adenosylmethionine] |  |
|  | 133.95 |  | Cn1c(=O)[nH]c(=O)c2c1[nH]c(=O)n2C [3,7-Dimethyluric acid] |  |
|  | 176.92 |  | Nc1ccn([C@H]2C[C@H](O)[C@@H](COP(=O)(O)OP(=O)(O)OP(=O)(O)O)O2)c(=O)n1 [Deoxycytidine 5'-triphosphate] |  |
|  | 120.08 |  | O=C(O)CCCC(=O)O [Glutaric acid] |  |
|  |  | 142.1 | OC[C@H]1OC(O)[C@H](O)[C@@H](O)[C@H]1O (stereo partly drawn) [D-(+)-Galactose] |  |
|  | 207.62 |  | CCCCCCCCCCCCCCCCCC(=O)OC[C@H](O)[C@H]1OC(=O)C(O)=C1O [Ascorbyl stearate] |  |
|  | 123.84 |  | CC(CCC(=O)O)C(=O)O (stereo not given) [2-Methylglutaric acid] |  |
|  | 115.46 |  | O=C(O)C(O)C(O)C(=O)O (stereo not given) [Tartaric acid] |  |

| collision cross section (N2) ([M+H]+) [Å²] | collision cross section (N2) ([M-H]-) [Å²] | collision cross section (N2) ([M+Na]+) [Å²] | SMILES | further results |
| --- | --- | --- | --- | --- |
|  | 134.48 | 144.9 | CC(=O)[C@@H](O)[C@H](O)COP(=O)(O)O [1-Deoxy-D-xylulose 5-phosphate] |  |
|  | 131.6 | 140.6 | O=C1O[C@H]([C@@H](O)CO)[C@H](O)[C@@H]1O [L-Gulonic gamma-lactone] |  |
|  | 210.05 |  | CC(C)=CCC[C@@H](C)[C@H]1CC[C@H]2[C@@H]3CC=C4C[C@@H](O)CC[C@]4(C)[C@H]3CC[C@]12C [Desmosterol] | collision cross section (N2) ([M+H-H2O]+): 199.4 Å² |
| 150.5 |  |  | Cc1ncc(COP(=O)(O)O)c(CO)c1O [Pyridoxine 5-phosphate] |  |
| 143.5 |  |  | CN(C)C(N)=NCCC[C@H](N)C(=O)O [NG,NG-dimethyl-L-arginine] |  |
|  | 158.37 | 168.7 | CO[C@@H]1[C@H](O)[C@@H](CO)O[C@H]1n1cnc2c(N)ncnc21 [2'-O-methyladenosine] |  |
|  | 149.2 | 152.2 | NC(Cc1c[nH]c2ccc(O)cc12)C(=O)O (stereo not given) [5-Hydroxytryptophan] |  |
|  |  | 169.7 | Nc1nc(=O)c2ncn([C@H]3C[C@H](O)[C@@H](COP(=O)(O)O)O3)c2[nH]1 [2'-Deoxyguanosine 5'-monophosphate] | collision cross section (N2) ([M+Na-2H]-): 167.93 Å² |
| 184.9 |  |  | Nc1ccn([C@H]2C[C@H](O)[C@@H](COP(=O)(O)OP(=O)(O)OP(=O)(O)O)O2)c(=O)n1 [dCTP] |  |
| 140.4 |  |  | Nc1ccc(C(=O)[O-])cc1 [4-Aminobenzoate] |  |
|  | 166.84 | 164.2 | Cn1c(=O)ccn([C@@H]2O[C@H](CO)[C@@H](O)[C@H]2O)c1=O [3-Methyluridine] |  |
|  | 153.3 | 145.5 | O=C(O)CNC(=O)CCc1ccccc1 [Phenylpropionylglycine] |  |
|  | 143.33 |  | CCCCCCCCC(=O)O [Pelargonic acid] |  |
| 182.7 |  |  | Nc1ncnc2c1ncn2[C@@H]1O[C@H](CSCC[C@H](N)C(=O)O)[C@@H](O)[C@H]1O [S-Adenosyl-L-homocysteine] |  |
|  | 128.12 | 140.9 | CC(C)C(O)(CC(=O)O)C(=O)O (stereo not given) [2-Isopropylmalic acid] |  |
| 126.7 | 120.1 |  | O=c1nc2[nH][nH]cc-2c(=O)[nH]1 [Oxypurinol] |  |
|  |  |  | O=P(O)(O)OC[C@H]1O[C@H](OP(=O)(O)OP(=O)(O)O)[C@H](O)[C@@H]1O [5-Phospho-alpha-D-ribose 1-diphosphate] | collision cross section (N2) ([M+Na-2H]-): 161.1 Å² |
| 163.9 |  |  | NC(=NCCC[C@H](N)C(=O)O)N[C@@H](CC(=O)O)C(=O)O [Argininosuccinic acid] | collision cross section (N2) ([M+Na-2H]-): 159.57 Å² |
| 132.9 | 131.77 |  | CC(=O)NCCCCCN [N-Acetylcadaverine] |  |
|  |  | 166.8 | O=c1nc[nH]c2c1ncn2[C@H]1C[C@H](O)[C@@H](COP(=O)(O)O)O1 [2'-Deoxyinosine 5'-monophosphate] | collision cross section (N2) ([M+Na-2H]-): 161.59 Å² |
| 142 |  |  | C[N+](C)(C)CCCC[C@H](N)C(=O)[O-] [N6,N6,N6-Trimethyl-L-lysine] |  |

| collision cross section (N2) ([M+H]+) [Å²] | collision cross section (N2) ([M-H]-) [Å²] | collision cross section (N2) ([M+Na]+) [Å²] | SMILES | further results |
| --- | --- | --- | --- | --- |
| 149.1 |  |  | Nc1ccccc1C(=O)C[C@H](N)C(=O)O [L-Kynurenine] |  |
|  | 129.29 |  | O=C(O)CCCCCC(=O)O [Pimelic acid] |  |
| 127.4 | 126.71 |  | O=C(O)[C@@H]1CCCCN1 [L-Pipecolic acid] |  |
|  | 145.48 | 158 | O=P(O)(O)O[C@H]1O[C@H](CO)[C@@H](O)[C@H](O)[C@H]1O [alpha-D-Glucose 1-phosphate] |  |
| 138 |  |  | NC(=O)NCCC[C@H](N)C(=O)O [L-Citrulline] |  |
|  |  | 149.9 | CC(=O)N[C@@H]1C(O)O[C@H](CO)[C@@H](O)[C@@H]1O (stereo not given in full) [N-Acetylmannosamine] |  |
|  |  | 210.1 | O=C(O)[C@H]1O[C@H](OP(=O)(O)OP(=O)(O)OC[C@H]2O[C@@H](n3ccc(=O)[nH]c3=O)[C@H](O)[C@@H]2O)[C@H](O)[C@@H](O)[C@@H]1O [Uridine 5'-diphosphoglucuronic acid] | collision cross section (N2) ([M+Na-2H]-): 201.6 Å² |
|  | 147.55 | 153.7 | Nc1ccc(C(=O)NCC(=O)O)cc1 [Aminohippuric acid] |  |
|  | 183.19 | 195.6 | O=C(O)CC(Nc1ncnc2c1ncn2[C@@H]1O[C@H](COP(=O)(O)O)[C@@H](O)[C@H]1O)C(=O)O (stereo not given in full) [Adenylsuccinic acid] |  |
|  | 163.78 | 178.1 | CO[C@H]1[C@@H](O)[C@H](n2cnc3c(=O)nc(N)[nH]c32)O[C@@H]1CO [3'-O-methylguanosine] |  |
|  | 205.82 | 211.2 | C[C@H](CCC(=O)NCCS(=O)(=O)O)[C@H]1CC[C@H]2[C@@H]3[C@H](O)C[C@@H]4C[C@H](O)CC[C@]4(C)[C@H]3C[C@H](O)[C@]12C [Taurocholate] |  |
|  | 127.46 |  | CC(C)[C@H](C(=O)O)[C@@H](O)C(=O)O [3-Isopropylmalate] |  |
| 160.1 |  |  | CC(C)[C@H](NC(=O)CC[C@H](N)C(=O)O)C(=O)O [gamma-Glutamylvaline] |  |
|  | 127.28 |  | O=CNc1ccccc1C(=O)O [Formylanthranilic acid] | collision cross section (N2) ([M+H-H2O]+): 125.7 Å² |
|  |  | 143 | NC(=O)NC(NC(N)=O)C(=O)O [Allantoic acid] |  |
| 132.5 | 134.21 |  | CNCCCC[C@H](N)C(=O)O [N6-Methyl-L-lysine] |  |
| 174.7 | 164.74 |  | O=c1[nH]c(=O)c2ncn([C@@H]3O[C@H](COP(=O)(O)O)[C@@H](O)[C@H]3O)c2[nH]1 [Xanthylic acid] |  |
|  |  |  | O=C(O)Cc1cc(O)ccc1O [Homogentisic acid] | collision cross section (N2) ([M+H-H2O]+): 135.9 Å² |
| 157.7 |  |  | N[C@@H](CCC(=O)N[C@@H](CS)C(=O)O)C(=O)O [Gamma-Glutamylcysteine] |  |

| SMILES | collision cross section (N2) ([M+H]+) [Å²] | collision cross section (N2) ([M-H]-) [Å²] | collision cross section (N2) ([M+Na]+) [Å²] | further results |
| --- | --- | --- | --- | --- |
| O=C(O)CNC(=O)c1cccnc1 [Nicotinuric acid] | 143.6 | 138.08 |  |  |
| COc1ccc2[nH]cc(CCN)c2c1 [5-Methoxytryptamine] |  | 141.18 |  |  |
| NCCc1c[nH]c2ccccc12 [Tryptamine] |  | 131.55 |  | collision cross section (N2) ([M+H-H2O]+): 125.1 Å² |
